Experimental data as given in ChEMBL document CHEMBL5370558, “Modifications of geldanamycin via CuAAC altering affinity to chaperone protein Hsp90 and cytotoxicity” (Eur J Med Chem, 2023).
Starred links: 1 amine or outer side, 2 acyl side, 3 side chain; linkers in the order of their positions; H or OH if unused. Positions of bridges follow the written chain, without caps; N, C: chain ends. Non-standard residues stand in square brackets, D forms with d. Residues, ends and D or L forms follow the SMILES beside them. Chains are numbered I, II in the order given. Actinocin(9to1) = Cc1c2oc3c(C)ccc(C(=O)[*:1])c3nc-2c(C(=O)[*:2])c(N)c1=O; NMeV = CN[C@H](C(=O)O)C(C)C; Sar = CNCC(=O)O

How the values were obtained:
[1] = tested on: SK-BR-3; experiment: Anticancer activity against human SK-BR-3 cells assessed as cell growth inhibition incubated for 72 hrs by SRB assay; type: functional, cell-based; details: Homo sapiens, SK-BR-3, 72 h
[2] = tested on: SK-OV-3; experiment: Anticancer activity against human SK-OV-3 cells assessed as cell growth inhibition incubated for 72 hrs by SRB assay; type: functional, cell-based; details: Homo sapiens, SK-OV-3, 72 h
[3] = tested on: PC-3; experiment: Anticancer activity against human PC-3 cells assessed as cell growth inhibition incubated for 72 hrs by SRB assay; type: functional, cell-based; details: Homo sapiens, PC-3, 72 h
[4] = Cytotoxicity against human HDF cells assessed as cell growth inhibition incubated for 72 hrs by SRB assay; type: toxicity, cell-based; details: HDF cells (normal human dermal fibroblasts, NHDF)
[5] = Selectivity index, ratio of IC50 for cytotoxicity against human HDF cells to IC50 for anticancer activity against human SK-BR-3 cells; type: toxicity, cell-based; details: HDF cells versus SK-BR-3 cells, read-out: Ratio IC50
[6] = Selectivity index, ratio of IC50 for cytotoxicity against human HDF cells to IC50 for anticancer activity against human SK-OV-3 cells; type: cell-based; details: HDF cells versus SK-OV-3 cells, read-out: Ratio IC50
[7] = Selectivity index, ratio of IC50 for cytotoxicity against human HDF cells to IC50 for anticancer activity against human PC-3 cells; type: toxicity, cell-based; details: HDF cells versus PC-3 cells, read-out: Ratio IC50

Row | Compound | IC50 [1] [nM] | IC50 [2] [nM] | IC50 [3] [nM] | IC50 at 72 h [4] [nM] | selectivity ratio [5] | selectivity ratio [6] | selectivity ratio [7]
1 | CO[C@H]1/C=C\C=C(/C)C(=O)NC2=CC(=O)C(NCc3cn(Cc4ccc(C)cc4)nn3)=C(C[C@@H](C)C[C@H](OC)[C@H](O)[C@@H](C)/C=C(\C)[C@@H]1OC(N)=O)C2=O | 990 | 820 | 850 | 1170 | 1.18 | 1.43 | 1.38
2 | CO[C@H]1/C=C\C=C(/C)C(=O)NC2=CC(=O)C(NCc3cn(Cc4ccc(C#N)cc4)nn3)=C(C[C@@H](C)C[C@H](OC)[C@H](O)[C@@H](C)/C=C(\C)[C@@H]1OC(N)=O)C2=O | 930 | 940 | 850 | 1780 | 1.91 | 1.89 | 2.09
3 | CO[C@H]1/C=C\C=C(/C)C(=O)NC2=CC(=O)C(NCc3cn(Cc4ccc(F)cc4)nn3)=C(C[C@@H](C)C[C@H](OC)[C@H](O)[C@@H](C)/C=C(\C)[C@@H]1OC(N)=O)C2=O | 1550 | 1520 | 1580 | 1690 | 1.09 | 1.11 | 1.07
4 | CO[C@H]1/C=C\C=C(/C)C(=O)NC2=CC(=O)C(NCCn3cc(C(=O)O)nn3)=C(C[C@@H](C)C[C@H](OC)[C@H](O)[C@@H](C)/C=C(\C)[C@@H]1OC(N)=O)C2=O | 810 | 870 | 870 | 1790 | 2.21 | 2.06 | 2.06
5 | CO[C@H]1/C=C\C=C(/C)C(=O)NC2=CC(=O)C(NCc3c[nH]nn3)=C(C[C@@H](C)C[C@H](OC)[C@H](O)[C@@H](C)/C=C(\C)[C@@H]1OC(N)=O)C2=O | 730 | 690 | 690 | 1770 | 2.42 | 2.57 | 2.57
6 | CO[C@H]1/C=C\C=C(/C)C(=O)NC2=CC(=O)C(NCCn3cc(-c4ccsc4)nn3)=C(C[C@@H](C)C[C@H](OC)[C@H](O)[C@@H](C)/C=C(\C)[C@@H]1OC(N)=O)C2=O | 930 | 940 | 990 | 2070 | 2.23 | 2.2 | 2.09
7 | CO[C@H]1/C=C\C=C(/C)C(=O)NC2=CC(=O)C(NCCN=[N+]=[N-])=C(C[C@@H](C)C[C@H](OC)[C@H](O)[C@@H](C)/C=C(\C)[C@@H]1OC(N)=O)C2=O | 940 | 950 | 910 | 2060 | 2.19 | 2.17 | 2.26
8 | CO[C@H]1/C=C\C=C(/C)C(=O)NC2=CC(=O)C(NCc3cn([C@@H]4OC[C@@H](OC(C)=O)[C@H](OC(C)=O)[C@H]4OC(C)=O)nn3)=C(C[C@@H](C)C[C@H](OC)[C@H](O)[C@@H](C)/C=C(\C)[C@@H]1OC(N)=O)C2=O | 4360 | 3730 | 3520 | 4590 | 1.05 | 1.23 | 1.3
9 | CO[C@H]1/C=C\C=C(/C)C(=O)NC2=CC(=O)C(NCc3cn(Cc4cccc(C#N)c4)nn3)=C(C[C@@H](C)C[C@H](OC)[C@H](O)[C@@H](C)/C=C(\C)[C@@H]1OC(N)=O)C2=O | 4510 | 4600 | 4510 | 7440 | 1.65 | 1.62 | 1.65
10 | CO[C@H]1/C=C\C=C(/C)C(=O)NC2=CC(=O)C(NCc3cn(Cc4ccc([N+](=O)[O-])o4)nn3)=C(C[C@@H](C)C[C@H](OC)[C@H](O)[C@@H](C)/C=C(\C)[C@@H]1OC(N)=O)C2=O | 2120 | 2090 | 2150 | 3820 | 1.8 | 1.83 | 1.78
11 | CO[C@H]1/C=C\C=C(/C)C(=O)NC2=CC(=O)C(NCc3cn(Cc4ccccc4)nn3)=C(C[C@@H](C)C[C@H](OC)[C@H](O)[C@@H](C)/C=C(\C)[C@@H]1OC(N)=O)C2=O | 500 | 630 | 520 | 1280 | 2.56 | 2.03 | 2.46
12 | CO[C@H]1/C=C\C=C(/C)C(=O)NC2=CC(=O)C(NCc3cn([C@]4(C#N)O[C@H](COC(C)=O)[C@H](OC(C)=O)[C@H](OC(C)=O)[C@H]4OC(C)=O)nn3)=C(C[C@@H](C)C[C@H](OC)[C@H](O)[C@@H](C)/C=C(\C)[C@@H]1OC(N)=O)C2=O | 910 | 940 | 760 | 1250 | 1.37 | 1.33 | 1.64
13 | Cc1c2oc3c(C)ccc(C(=O)N[C@@H]4C(=O)N[C@H](C(C)C)C(=O)N5CCC[C@H]5C(=O)N(C)CC(=O)N(C)[C@@H](C(C)C)C(=O)O[C@@H]4C)c3nc-2c(C(=O)N[C@@H]2C(=O)N[C@H](C(C)C)C(=O)N3CCC[C@H]3C(=O)N(C)CC(=O)N(C)[C@@H](C(C)C)C(=O)O[C@@H]2C)c(N)c1=O [DACTINOMYCIN] (I: T[dV]P[Sar][NMeV] / II: T[dV]P[Sar][NMeV]; ester I:1-I:C, II:1-II:C; linker I:N-II:N via Actinocin(9to1)) | 680 | 620 | 710 | 1630 | 2.4 | 2.63 | 2.3
14 | CO[C@H]1/C=C\C=C(/C)C(=O)NC2=CC(=O)C(NCCn3cc(-c4ccccn4)nn3)=C(C[C@@H](C)C[C@H](OC)[C@H](O)[C@@H](C)/C=C(\C)[C@@H]1OC(N)=O)C2=O | 1160 | 1300 | 1210 | 2410 | 2.08 | 1.85 | 1.99
15 | CO[C@H]1/C=C\C=C(/C)C(=O)NC2=CC(=O)C(NCc3cn(Cc4ccsc4Br)nn3)=C(C[C@@H](C)C[C@H](OC)[C@H](O)[C@@H](C)/C=C(\C)[C@@H]1OC(N)=O)C2=O | 1050 | 1020 | 1130 | 1730 | 1.65 | 1.7 | 1.53
16 | CO[C@H]1/C=C\C=C(/C)C(=O)NC2=CC(=O)C(NCc3cn([C@@H]4O[C@H](CO)[C@@H](O)[C@H](O)[C@H]4NC(C)=O)nn3)=C(C[C@@H](C)C[C@H](OC)[C@H](O)[C@@H](C)/C=C(\C)[C@@H]1OC(N)=O)C2=O | 1750 | 1860 | 1840 | 2130 | 1.85 | 1.15 | 1.16
17 | CO[C@H]1/C=C\C=C(/C)C(=O)NC2=CC(=O)C(NCc3cn(Cc4ccc(Br)cc4)nn3)=C(C[C@@H](C)C[C@H](OC)[C@H](O)[C@@H](C)/C=C(\C)[C@@H]1OC(N)=O)C2=O | 370 | 270 | 310 | 650 | 1.76 | 2.41 | 2.1
18 | CO[C@H]1/C=C\C=C(/C)C(=O)NC2=CC(=O)C(NCCn3cc(CC(=O)O)nn3)=C(C[C@@H](C)C[C@H](OC)[C@H](O)[C@@H](C)/C=C(\C)[C@@H]1OC(N)=O)C2=O | 2840 | 2680 | 2120 | 3880 | 1.37 | 1.45 | 1.83
19 | CO[C@H]1/C=C\C=C(/C)C(=O)NC2=CC(=O)C(NCc3cn([C@@H]4O[C@H](COCc5ccccc5)[C@@H](OCc5ccccc5)[C@H](OCc5ccccc5)[C@H]4NC(C)=O)nn3)=C(C[C@@H](C)C[C@H](OC)[C@H](O)[C@@H](C)/C=C(\C)[C@@H]1OC(N)=O)C2=O | 770 | 790 | 930 | 1510 | 1.96 | 1.91 | 1.62
20 | CO[C@H]1/C=C\C=C(/C)C(=O)NC2=CC(=O)C(NCc3cn(CCN4C(=O)c5ccccc5C4=O)nn3)=C(C[C@@H](C)C[C@H](OC)[C@H](O)[C@@H](C)/C=C(\C)[C@@H]1OC(N)=O)C2=O | 1220 | 1280 | 1290 | 1960 | 1.61 | 1.53 | 1.52
21 | CO[C@H]1/C=C\C=C(/C)C(=O)NC2=CC(=O)C(NCc3cn(CC=C(C)C)nn3)=C(C[C@@H](C)C[C@H](OC)[C@H](O)[C@@H](C)/C=C(\C)[C@@H]1OC(N)=O)C2=O | 2030 | 2160 | 2770 | 3180 | 1.57 | 1.47 | 1.15
22 | CO[C@H]1/C=C\C=C(/C)C(=O)NC2=CC(=O)C(NCc3cn([C@@H]4O[C@H](CO)[C@@H](O[C@@H]5O[C@H](CO)[C@H](O)[C@H](O)[C@H]5O)[C@H](O)[C@H]4O)nn3)=C(C[C@@H](C)C[C@H](OC)[C@H](O)[C@@H](C)/C=C(\C)[C@@H]1OC(N)=O)C2=O | 2850 | 2840 | 2830 | 4110 | 1.44 | 1.45 | 1.45
23 | CO[C@H]1/C=C\C=C(/C)C(=O)NC2=CC(=O)C(NCc3cn([C@@H]4O[C@H](CO)[C@@H](O)[C@H](O)[C@H]4O)nn3)=C(C[C@@H](C)C[C@H](OC)[C@H](O)[C@@H](C)/C=C(\C)[C@@H]1OC(N)=O)C2=O | 740 | 540 | 600 | 1010 | 1.36 | 1.87 | 1.68
